Experimental data taken from patent US9085555B2, “Complement pathway modulators and uses thereof” (priority 2011, dated 2015).
Where two headings read alike, the source gives them in different places.

Target: Factor D (Homo sapiens (Human), UniProt P00746)
Test: biochemical
Assay type: biochemical

Sequence of Factor D (P00746 26-253): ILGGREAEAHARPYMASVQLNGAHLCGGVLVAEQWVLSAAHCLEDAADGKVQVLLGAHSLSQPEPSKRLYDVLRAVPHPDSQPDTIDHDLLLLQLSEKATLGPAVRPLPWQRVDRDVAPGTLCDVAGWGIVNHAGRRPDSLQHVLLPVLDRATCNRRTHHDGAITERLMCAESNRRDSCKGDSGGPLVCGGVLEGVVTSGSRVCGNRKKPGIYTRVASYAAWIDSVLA

Structure (SMILES) | IC50 [nM] | IC50 (read-out: IC50) [nM]
NC(=O)n1cc(NC(=O)N2C[C@@H](N)C[C@H]2C(=O)NC[C@H]2CCCC[C@@H]2O)c2ccccc21 (relative stereo) [Example 75, (2S,4S)-4-Amino-pyrrolidine-1,2-dicarboxylic acid 1-[(1-carbamoyl-1H-indol-3-yl)-amide] 2-[((1R*,2S*)-2-hydroxy-cyclohexylmethyl)-amide]] | 12600 | –
CC(=O)c1cn(CC(=O)N2C[C@@H](N(C)C)[C@H](F)[C@H]2C(=O)NCc2cccc(Cl)c2F)c2ccccc12 [Example 555, (2R,3S,4R)-1-[2-(3-Acetyl-indol-1-yl)-acetyl]-4-dimethylamino-3-fluoro-pyrrolidine-2-carboxylic acid 3-chloro-2-fluoro-benzylamide] | – | 2270
C[C@@H](NC(=O)[C@@H]1C[C@H](N)CN1C(=O)Nc1cn(C(N)=O)c2ccccc12)c1cccc(Cl)c1 [Example 69, (2S,4S)-4-Amino-pyrrolidine-1,2-dicarboxylic acid 1-[(1-carbamoyl-1H-indol-3-yl)-amide] 2-{[(R)-1-(3-chloro-phenyl)-ethyl]-amide}] | – | 1050
CN1CCN(Cc2cc(Cl)c(F)c(CNC(=O)[C@@H]3C[C@@H](F)CN3C(=O)Nc3cn(C(N)=O)c4ccccc34)c2)CC1 [Example 10, (2S,4R)-4-Fluoro-pyrrolidine-1,2-dicarboxylic acid 1-[(1-carbamoyl-1H-indol-3-yl)-amide] 2-[3-chloro-2-fluoro-5-(4-methyl-piperazin-1-ylmethyl)-benzylamide]] | – | 604
NC(=O)n1cc(NC(=O)N2CC3CC3[C@H]2C(=O)NCc2cccc(Cl)c2F)c2ccccc21 (stereo partly drawn) [Example 135, (1S,2S,5R)-3-Aza-bicyclo[3.1.0]hexane-2,3-dicarboxylic acid 3-[(1-carbamoyl-1H-indol-3-yl)-amide] 2-(3-chloro-2-fluoro-benzylamide)] | – | 59
COC(=O)COc1ccc2c(NC(=O)N3[C@@H]4C[C@@H]4C[C@H]3C(=O)NCc3cccc(Cl)c3F)cn(C(N)=O)c2c1 [Example 394, (1-Carbamoyl-3-{[(1R,3S,5R)-3-(3-chloro-2-fluoro-benzylcarbamoyl)-2-aza-bicyclo[3.1.0]hexane-2-carbonyl]-amino}-1H-indol-6-yloxy)-acetic acid methyl ester] | – | 70
NC(=O)c1nn(CC(=O)N2[C@@H]3C[C@@H]3C[C@H]2C(=O)Nc2cccc(OC(F)(F)F)c2F)c2ccccc12 [Example 707, 1-{2-[(1R,3S,5R)-3-(2-Fluoro-3-trifluoromethoxy-phenylcarbamoyl)-2-aza-bicyclo[3.1.0]hex-2-yl]-2-oxo-ethyl}-1H-indazole-3-carboxylic acid amide] | – | 88
C[C@@]1(F)C[C@@H](C(=O)NCc2cccc(Cl)c2F)N(C(=O)Nc2cn(C(N)=O)c3ccccc23)C1 [Example 205, (2S,4R)-4-Fluoro-4-methyl-pyrrolidine-1,2-dicarboxylic acid 1-[(1-carbamoyl-1H-indol-3-yl)-amide] 2-(3-chloro-2-fluoro-benzylamide)] | – | 14
COC(=O)[C@H]1C[C@@H](C(=O)Nc2cccc(OC(F)(F)F)c2F)N(C(=O)Nc2cn(C(N)=O)c3ccccc23)C1 [Example 435, (3S,5S)-1-(1-Carbamoyl-1H-indol-3-ylcarbamoyl)-5-(2-fluoro-3-trifluoromethoxy-phenylcarbamoyl)-pyrrolidine-3-carboxylic acid methyl ester] | – | 250
NC(=O)c1cn(CC(=O)N2C[C@H](F)C[C@H]2C(=O)NCc2cccc(Cl)c2F)c2cc(OC(F)F)ccc12 [Example 528, 1-{2-[(2S,4R)-2-(3-Chloro-2-fluoro-benzylcarbamoyl)-4-fluoro-pyrrolidin-1-yl]-2-oxo-ethyl}-6-difluoromethoxy-1H-indole-3-carboxylic acid amide] | – | 75
CC(=O)c1cn(CC(=O)N2C[C@H](F)C[C@H]2C(=O)NCc2cccc(Cl)c2F)c2cc(-c3nnn[nH]3)ccc12 [Example 617, (2S,4R)-1-{2-[3-Acetyl-6-(1H-tetrazol-5-yl)-indol-1-yl]-acetyl}-4-fluoro-pyrrolidine-2-carboxylic acid 3-chloro-2-fluoro-benzylamide] | – | 28
NC(=O)n1cc(NC(=O)N2C[C@H](F)C[C@H]2C(=O)NCc2cncc(Cl)c2)c2ccccc21 [Example 237, (2S,4R)-4-Fluoro-pyrrolidine-1,2-dicarboxylic acid 1-[(1-carbamoyl-1H-indol-3-yl)-amide] 2-[(5-chloro-pyridin-3-ylmethyl)-amide]] | – | 70
CC(=O)c1cn(CC(=O)N2C[C@](C)(F)C[C@H]2C(=O)NCc2cccc(Cl)c2F)c2cc(O)ccc12 [Example 582, (2S,4R)-1-[2-(3-Acetyl-6-hydroxy-indol-1-yl)-acetyl]-4-fluoro-4-methyl-pyrrolidine-2-carboxylic acid 3-chloro-2-fluoro-benzylamide] | – | 134
COC(=O)Cc1ccc2c(C(C)=O)cn(CC(=O)N3C[C@H](F)C[C@H]3C(=O)NCc3cccc(Cl)c3F)c2c1 [Example 549, (3-Acetyl-1-{2-[(2S,4R)-2-(3-chloro-2-fluoro-benzylcarbamoyl)-4-fluoro-pyrrolidin-1-yl]-2-oxo-ethyl}-1H-indol-6-yl)-acetic acid methyl ester] | – | 69
NC(=O)c1cn(CC(=O)N2C[C@H](F)[C@@H](N)[C@H]2C(=O)NCc2cccc(Cl)c2F)c2ccccc12 [Example 574, 1-{2-[(2S,3S,4S)-3-Amino-2-(3-chloro-2-fluoro-benzylcarbamoyl)-4-fluoro-pyrrolidin-1-yl]-2-oxo-ethyl}-1H-indole-3-carboxylic acid amide] | – | 217
NC(=O)n1cc(NC(=O)N2C[C@H](F)C[C@H]2C(=O)NCc2cccnc2)c2ccccc21 [Example 3, (2S,4R)-4-Fluoro-pyrrolidine-1,2-dicarboxylic acid 1-[(1-carbamoyl-1H-indol-3-yl)-amide] 2-[(pyridin-3-ylmethyl)-amide]] | – | 450
NC(=O)n1cc(NC(=O)N2C[C@@H](N)C[C@H]2C(=O)NCCc2ccccc2)c2ccccc21 [Example 81, (2S,4S)-4-Amino-pyrrolidine-1,2-dicarboxylic acid 1-[(1-carbamoyl-1H-indol-3-yl)-amide] 2-(phenethyl-amide)] | – | 4750
NC[C@@]1(F)C[C@@H](C(=O)NCc2c(F)ccc(Cl)c2F)N(C(=O)Cc2cn(C(N)=O)c3ccccc23)C1 [Example 471, 3-{2-[(2S,4S)-4-Aminomethyl-2-(3-chloro-2,6-difluoro-benzylcarbamoyl)-4-fluoro-pyrrolidin-1-yl]-2-oxo-ethyl}-indole-1-carboxylic acid amide] | – | 89
NC(=O)n1cc(NC(=O)N2C[C@H](F)C[C@H]2CNCc2cccc(Cl)c2F)c2ccccc21 [Example 116, 3-({(2S,4R)-2-[(3-Chloro-2-fluoro-benzylamino)-methyl]-4-fluoro-pyrrolidine-1-carbonyl}-amino)-indole-1-carboxylic acid amide] | – | 1150
COc1ccc2c(c1)c(C(C)=O)cn2CC(=O)N1C[C@H](F)C[C@H]1C(=O)NCc1cccc(Cl)c1F [Example 588, (2S,4R)-1-[2-(3-Acetyl-5-methoxy-indol-1-yl)-acetyl]-4-fluoro-pyrrolidine-2-carboxylic acid 3-chloro-2-fluoro-benzylamide] | – | 31
NC(=O)n1cc(NC(=O)N2C[C@@H](N)C[C@H]2C(=O)NCc2cccc(F)c2)c2ccccc21 [Example 32, (2S,4S)-4-Amino-pyrrolidine-1,2-dicarboxylic acid 1-[(1-carbamoyl-1H-indol-3-yl)-amide] 2-(3-fluoro-benzylamide)] | – | 3350
NC(=O)n1cc(NC(=O)N2[C@@H]3C[C@@H]3C[C@H]2C(=O)N[C@H](CO)c2cccc(Cl)c2)c2ccccc21 [Example 320, (1R,3S,5R)-2-Aza-bicyclo[3.1.0]hexane-2,3-dicarboxylic acid 2-[(1-carbamoyl-1H-indol-3-yl)-amide] 3-{[(S)-1-(3-chloro-phenyl)-2-hydroxy-ethyl]-amide}] | – | 7
CC(=O)c1cn(CC(=O)N2[C@@H]3C[C@@H]3C[C@H]2C(=O)N[C@H](CCO)c2cccc(Cl)c2F)c2ccccc12 [Example 504, (1R,3S,5R)-2-[2-(3-Acetyl-indol-1-yl)-acetyl]-2-aza bicyclo[3.1.0]hexane-3-carboxylic acid [(R)-1-(3-chloro-2-fluoro-phenyl)-3-hydroxy-propyl]-amide] | – | 57
NC(=O)n1cc(CC(=O)N2C[C@@H](N)C[C@H]2C(=O)NCc2cccc(Cl)c2F)c2ccccc21 [Example 468, 3-{2-[(2S,4S)-4-Amino-2-(3-chloro-2-fluoro-benzylcarbamoyl)-pyrrolidin-1-yl]-2-oxo-ethyl}-indole-1-carboxylic acid amide] | 350 | –
NC(=O)n1cc(NC(=O)N2[C@@H]3C[C@@H]3C[C@H]2C(=O)NCc2cccc(Cl)c2F)c2cc(OCC(=O)O)ccc21 [Example 374, (1-Carbamoyl-3-{[(1R,3S,5R)-3-(3-chloro-2-fluoro-benzylcarbamoyl)-2-aza-bicyclo[3.1.0]hexane-2-carbonyl]-amino}-1H-indol-5-yloxy)-acetic acid] | – | 3
NC(=O)n1cc(NC(=O)N2C[C@H](F)C[C@H]2C(=O)Nc2cccc(Br)n2)c2ccccc21 [Example 764, (2S,4R)-4-Fluoro-pyrrolidine-1,2-dicarboxylic acid 2-[(6-bromo-pyridin-2-yl)-amide]1-[(1-carbamoyl-1H-indol-3-yl)-amide]] | – | 4
COC[C@@H](NC(=O)[C@@H]1C[C@H]2C[C@H]2N1C(=O)Cn1cc(C(C)=O)c2ccncc21)c1cccc(Cl)c1F [Example 535, (1R,3S,5R)-2-[2-(3-Acetyl-pyrrolo[2,3-c]pyridin-1-yl)-acetyl]-2-aza-bicyclo[3.1.0] hexane-3-carboxylic acid [(S)-1-(3-chloro-2-fluoro-phenyl)-2-methoxy-ethyl]-amide] | – | 62
NC(=O)n1cc(NC(=O)N2CCC[C@H]2CNS(=O)(=O)c2cccc(Cl)c2)c2ccccc21 [Example 112, 3-({(S)-2-[(3-Chloro-benzenesulfonylamino)-methyl]-pyrrolidine-1-carbonyl}-amino)-indole-1-carboxylic acid amide] | – | 550
